Experimental data: BindingDB's records for doi:10.1016/j.bmcl.2017.01.038 (Novartis Institutes For Biomedical Research, 2017)
pIC50: −log10 of the molar value.

Target: Protein kinase C beta type (Mus musculus) (UniProt P68404)
Experiment: Inhibition of PKCbeta in mouse B cells assessed as reduction in IgM-stimulated cell proliferation

Sequence of Protein kinase C beta type (Mus musculus) (P68404 whole entry, looked up): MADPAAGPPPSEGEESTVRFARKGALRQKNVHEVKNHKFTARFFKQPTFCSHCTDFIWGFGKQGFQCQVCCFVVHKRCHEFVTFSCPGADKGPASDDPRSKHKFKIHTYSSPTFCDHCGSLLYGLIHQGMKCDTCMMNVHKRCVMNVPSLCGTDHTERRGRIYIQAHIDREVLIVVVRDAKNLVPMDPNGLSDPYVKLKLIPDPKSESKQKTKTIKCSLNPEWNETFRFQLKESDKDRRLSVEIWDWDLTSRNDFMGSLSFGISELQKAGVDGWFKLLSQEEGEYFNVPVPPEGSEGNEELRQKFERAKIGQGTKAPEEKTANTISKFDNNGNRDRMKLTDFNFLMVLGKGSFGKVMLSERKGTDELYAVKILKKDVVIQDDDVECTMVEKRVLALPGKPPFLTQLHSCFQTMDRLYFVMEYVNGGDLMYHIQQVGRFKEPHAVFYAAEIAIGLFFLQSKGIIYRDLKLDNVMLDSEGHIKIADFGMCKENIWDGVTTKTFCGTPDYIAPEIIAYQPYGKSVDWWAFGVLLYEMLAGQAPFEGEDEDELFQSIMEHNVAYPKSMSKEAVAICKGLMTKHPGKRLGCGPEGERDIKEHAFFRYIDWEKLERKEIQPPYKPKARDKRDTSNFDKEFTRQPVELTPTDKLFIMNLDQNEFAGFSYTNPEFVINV

SMILES	pIC50
CN(C)Cc1ccc2ccc(Cl)c(C3=C(c4cn(C)c5ccccc45)C(=O)NC3=O)c2c1	6.53
CN1CCN(c2nc(C3=C(c4c[nH]c5ccccc45)C(=O)NC3=O)c3ccccc3n2)CC1 [Sotrastaurin]	6.63
